This note sets out measurements from patent publication US20050124667A1, “Oxamide inhibitors of plasminogen activator inhibitor-1” (priority 2003, published 2005).

As to `CN1CCCC1CCNC(=O)c1ccc(O)c(NC(=O)C(=O)Nc2cc(Cl)cc(Cl)c2O)c1` (racemic) [Example 34, N-(3,5-Dichloro-2-hydroxy-phenyl)-N′-{2-hydroxy-5-[2-(1-methyl-pyrrolidin-2-yl)-ethylcarbamoyl]-phenyl}-oxalamide (Racemic)], the melting point (usually the temperature, or range, at which the solid turns liquid) is 220 °C.

`CCOC(=O)C(Cc1ccccc1)NC(=O)c1ccc(O)c(NC(=O)C(=O)Nc2cc(Cl)cc(Cl)c2O)c1` (stereo in doubt) [Example 32, 2(2R)-{3-[(3,5-Dichloro-2-hydroxy-phenylaminooxalyl)-amino]-4-hydroxy-benzoylamino}-3-phenyl-propionic acid ethyl ester] gave a melting point of 254 °C.

In turn, `Cc1ccc(NC(=O)C(=O)Nc2cc(Cl)cc(Cl)c2O)c(O)c1` [Example 3, N-(3,5-Dichloro-2-hydroxy-phenyl)-N′-(2-hydroxy-4-methyl-phenyl)-oxalamide] showed a melting point of 283 °C.

In the case of `O=C(Nc1cc([N+](=O)[O-])ccc1O)C(=O)Nc1cc(Cl)cc(Cl)c1O` [Example 4, N-(3,5-Dichloro-2-hydroxy-phenyl)-N′-(2-hydroxy-5-nitro-phenyl)-oxalamide], the melting point was 386 °C.

In turn, `O=C(Nc1cc(-c2ccccc2)ccc1O)C(=O)Nc1cc(Cl)cc(Cl)c1O` [Example 5, N-(3,5-Dichloro-2-hydroxy-phenyl)-N′-(4-hydroxy-biphenyl-3-yl)-oxalamide] returned a melting point of 288 °C.

As to `O=C(Nc1cc2ccccc2cc1O)C(=O)Nc1cc(Cl)cc(Cl)c1O` [Example 6, N-(3,5-Dichloro-2-hydroxy-phenyl)-N′-(3-hydroxy-naphthalen-2-yl)-oxalamide], the melting point is 313 °C.

Regarding `O=C(Nc1cc(Cl)ccc1O)C(=O)Nc1cc(Cl)cc(Cl)c1O` [Example 7, N-(5-Chloro-2-hydroxy-phenyl)-N′-(3,5-dichloro-2-hydroxy-phenyl)-oxalamide], the melting point stood at 311 °C.

The molecule `O=C(Nc1cc(Cl)cc(Cl)c1O)C(=O)Nc1c(O)ccc2ccccc12` [Example 8, N-(3,5-Dichloro-2-hydroxy-phenyl)-N′-(2-hydroxy-naphthalen-1-yl)-oxalamide] had a melting point of 265 °C.

The molecule `CCC(C)(C)c1ccc(NC(=O)C(=O)Nc2cc(Cl)cc(Cl)c2O)c(O)c1` [Example 9, N-(3,5-Dichloro-2-hydroxy-phenyl)-N′-[4-(1,1-dimethyl-propyl)-2-hydroxy-phenyl]-oxalamide] came in with a melting point of 260 °C.

Turning to `Cc1cccc(O)c1NC(=O)C(=O)Nc1cc(Cl)cc(Cl)c1O` [Example 10, N-(3,5-Dichloro-2-hydroxy-phenyl)-N′-(2-hydroxy-6-methyl-phenyl)-oxalamide], the melting point is 260 °C.

The molecule `COC(=O)c1ccc(NC(=O)C(=O)Nc2cc(Cl)cc(Cl)c2O)c(O)c1` [Example 12, 4-[(3,5-Dichloro-2-hydroxy-phenylaminooxalyl)-amino]-3-hydroxy-benzoic Acid Methyl Ester] returned a melting point of 271 °C.

Molecule `N#Cc1ccc(O)c(NC(=O)C(=O)Nc2cc(Cl)cc(Cl)c2O)c1` [Example 15, N-(5-Cyano-2-hydroxy-phenyl)-N′-(3,5-dichloro-2-hydroxy-phenyl)-oxalamide] gave a melting point of 298 °C.

`COc1ccc(O)c(NC(=O)C(=O)Nc2cc(Cl)cc(Cl)c2O)c1` [Example 17, N-(3,5-Dichloro-2-hydroxy-phenyl)-N′-(2-hydroxy-5-methoxy-phenyl)-oxalamide] had a melting point of 273 °C.

As to `O=C(Nc1cc(F)ccc1O)C(=O)Nc1cc(Cl)cc(Cl)c1O` [Example 18, N-(3,5-Dichloro-2-hydroxy-phenyl)-N′-(5-fluoro-2-hydroxy-phenyl)-oxalamide], the melting point was 297 °C.

`O=C(Nc1cccc(Cl)c1O)C(=O)Nc1cc(Cl)cc(Cl)c1O` [Example 19, N-(3-Chloro-2-hydroxy-phenyl)-N′-(3,5-dichloro-2-hydroxy-phenyl)-oxalamide] returned a melting point of 296 °C.

As to `O=C(Nc1cc(Cl)cc(Cl)c1O)C(=O)Nc1ccc(F)c(F)c1O` [Example 20, N-(3,5-Dichloro-2-hydroxy-phenyl)-N′-(3,4-difluoro-2-hydroxy-phenyl)-oxalamide], the melting point was determined as 302 °C.

For the molecule `O=C(Nc1cc(C(F)(F)F)ccc1O)C(=O)Nc1cc(Cl)cc(Cl)c1O` [Example 21, N-(3,5-Dichloro-2-hydroxy-phenyl)-N′-(2-hydroxy-5-trifluoromethyl-phenyl)-oxalamide], the melting point stood at 281 °C.

With `O=C(Nc1ccc(C(=O)O)cc1O)C(=O)Nc1cc(Cl)cc(Cl)c1O` [Example 24, 4-[(3,5-Dichloro-2-hydroxy-phenylaminooxalyl)-amino]-3-hydroxy-benzoic Acid], the melting point is 323 °C.

With `CCOC(=O)c1ccc(O)c(NC(=O)C(=O)Nc2cc(Cl)cc(Cl)c2O)c1` [Example 25, 3-[(3,5-Dichloro-2-hydroxy-phenylaminooxalyl)-amino]-4-hydroxy-benzoic Acid Ethyl Ester], the melting point is 270 °C.

As for `CN1CCN(CCCNC(=O)c2ccc(O)c(NC(=O)C(=O)Nc3cc(Cl)cc(Cl)c3O)c2)CC1` [Example 30, N-(3,5-Dichloro-2-hydroxy-phenyl)-N′-{2-hydroxy-5-[3-(4-methyl-piperazin-1-yl)-propylcarbamoyl]-phenyl}-oxalamide], the melting point came to 232 °C.

On to `O=C(Nc1cc(C(=O)NCc2ccncc2)ccc1O)C(=O)Nc1cc(Cl)cc(Cl)c1O` [Example 33, N-(3,5-Dichloro-2-hydroxy-phenyl)-N′-{2-hydroxy-5-[(pyridin-4-ylmethyl)-carbamoyl]-phenyl}-oxalamide], for which the melting point came to 250 °C.

`CN(C)CCCNC(=O)c1ccc(O)c(NC(=O)C(=O)Nc2cc(Cl)cc(Cl)c2O)c1` [Example 35, N-(3,5-Dichloro-2-hydroxy-phenyl)-N′-[5-(3-dimethylamino-propylcarbamoyl)-2-hydroxy-phenyl]-oxalamide] showed a melting point of 205 °C.

`O=C(Nc1cc(C(=O)NCCCn2ccnc2)ccc1O)C(=O)Nc1cc(Cl)cc(Cl)c1O` [Example 36, N-(3,5-Dichloro-2-hydroxy-phenyl)-N′-[2-hydroxy-5-(3-imidazol-1-yl-propylcarbamoyl)-phenyl]-oxalamide] gave a melting point of 175 °C.

Consider `O=C(Nc1ccc(C(=O)NCCCn2ccnc2)cc1O)C(=O)Nc1cc(Cl)cc(Cl)c1O` [Example 43, N-(3,5-Dichloro-2-hydroxy-phenyl)-N′-[2-hydroxy-4-(3-imidazol-1-yl-propylcarbamoyl)-phenyl]-oxalamide], for which the melting point stood at 225 °C.
